Records with an inconclusive call do not appear. Activity calls are given as the source filed them.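 How the source made its calls: active means compounds whose fitted AC50 for signal loss is at most twice the top valid dose tested; inconclusive means flat curve with 30 to 70% inhibition, or poor fit; inactive means the rest.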
These compounds were tested against Leucyl-cystinyl aminopeptidase (Mus musculus) (UniProt Q8C129) (assay: IRAP inhibitors, dose response, selectivity assay for ERAP1 modulator project, biochemical, Leu-AMC fluorescence, cherry-picked samples, set 2 (AID 743340)). Conditions: purified IRAP, Leu-AMC cleavage fluorescence, 1 h.
Leucyl-cystinyl aminopeptidase (Mus musculus), sequence (Q8C129 whole entry, looked up): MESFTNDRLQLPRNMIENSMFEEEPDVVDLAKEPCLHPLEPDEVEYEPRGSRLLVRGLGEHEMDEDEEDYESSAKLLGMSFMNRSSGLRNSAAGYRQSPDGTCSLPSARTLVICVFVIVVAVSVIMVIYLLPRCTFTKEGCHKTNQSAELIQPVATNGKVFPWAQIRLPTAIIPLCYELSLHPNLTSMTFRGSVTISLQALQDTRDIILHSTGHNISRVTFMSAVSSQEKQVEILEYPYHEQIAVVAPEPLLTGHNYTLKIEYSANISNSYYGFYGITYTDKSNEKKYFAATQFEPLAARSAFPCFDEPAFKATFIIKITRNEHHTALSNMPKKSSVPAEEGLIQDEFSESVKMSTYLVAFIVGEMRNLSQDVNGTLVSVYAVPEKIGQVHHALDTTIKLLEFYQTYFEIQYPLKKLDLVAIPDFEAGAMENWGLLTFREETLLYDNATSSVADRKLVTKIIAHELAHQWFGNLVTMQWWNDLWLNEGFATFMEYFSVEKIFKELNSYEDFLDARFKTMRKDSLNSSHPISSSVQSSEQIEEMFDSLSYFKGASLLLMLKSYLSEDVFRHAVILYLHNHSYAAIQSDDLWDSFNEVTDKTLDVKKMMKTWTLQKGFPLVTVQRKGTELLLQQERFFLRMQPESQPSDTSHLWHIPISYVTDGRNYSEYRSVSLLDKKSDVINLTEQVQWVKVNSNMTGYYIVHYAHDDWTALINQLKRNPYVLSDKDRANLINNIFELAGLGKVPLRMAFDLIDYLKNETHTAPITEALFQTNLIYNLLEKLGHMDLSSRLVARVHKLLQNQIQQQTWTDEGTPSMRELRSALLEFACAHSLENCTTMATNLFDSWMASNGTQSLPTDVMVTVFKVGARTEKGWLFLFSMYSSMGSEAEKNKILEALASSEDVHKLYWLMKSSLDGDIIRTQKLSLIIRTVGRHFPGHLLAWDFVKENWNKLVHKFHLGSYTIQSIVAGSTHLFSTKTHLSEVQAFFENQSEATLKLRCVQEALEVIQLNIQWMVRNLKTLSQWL

Compound | AC50
CCCN(C)C[C@@H]1OCCCC[C@@H](C)Oc2ccc(NS(=O)(=O)c3c(C)noc3C)cc2C(=O)N([C@H](C)CO)C[C@@H]1C | > 20 µM (inactive)
O=C(O)c1ccccc1NS(=O)(=O)c1cccc(-n2sc3ccccc3c2=O)c1 | > 22 µM (inactive)
CC(C)[C@@H](C(=O)N[C@@H](CCc1ccc(O)cc1)C(=O)O)N(C)C(=O)[C@H](CO)NC(=O)[C@@H](O)[C@H](N)CCCCCCCCl | 0.0449 µM

Same assay, conditions: purified IRAP, Leu-AMC cleavage fluorescence, 1 h; at 2.6 µM (top of the series)

Compound | activity change, negative = inhibition
C[C@@H]1CCCCO[C@@H](CN(C)C(=O)CCC(F)(F)F)[C@@H](C)CN([C@@H](C)CO)C(=O)c2cc(NS(=O)(=O)c3ccccc3)ccc2O1 | inactive

Same assay, conditions: purified IRAP, Leu-AMC cleavage fluorescence, 1 h; at 5 µM (top of the series)

Compound | activity change, negative = inhibition
C[C@@H]1CCCCO[C@@H](CN(C)C(=O)CCC(F)(F)F)[C@@H](C)CN([C@@H](C)CO)C(=O)c2cc(NS(=O)(=O)c3ccc(Cl)cc3)ccc2O1 | inactive

Same assay, conditions: purified IRAP, Leu-AMC cleavage fluorescence, 1 h; at 5.6 µM (top of the series)

Compound | activity change, negative = inhibition
COc1ccc(S(=O)(=O)N(C)C[C@@H]2Oc3ncccc3C(=O)N([C@H](C)CO)C[C@@H]2C)cc1 | inactive
C[C@@H]1CCCCO[C@@H](CN(C)Cc2ccc3c(c2)OCO3)[C@@H](C)CN([C@@H](C)CO)C(=O)c2cc(NS(=O)(=O)c3ccccc3)ccc2O1 | inactive
C[C@@H]1CCCCO[C@@H](CN(C)Cc2ccccc2)[C@@H](C)CN([C@H](C)CO)C(=O)c2cc(NS(=O)(=O)c3cccs3)ccc2O1 | inactive

Same assay, conditions: purified IRAP, Leu-AMC cleavage fluorescence, 1 h; at 10 µM (top of the series)

Compound | activity change, negative = inhibition
C[C@@H]1CCCCO[C@@H](CN(C)C)[C@H](C)CN([C@@H](C)CO)C(=O)c2cc(NC(=O)Nc3ccc(C(F)(F)F)cc3)ccc2O1 | inactive
Cc1noc(C)c1S(=O)(=O)N(C)C[C@@H]1OCCCC[C@@H](C)Oc2ccc(NS(=O)(=O)c3cccs3)cc2C(=O)N([C@@H](C)CO)C[C@@H]1C | inactive

Same assay, conditions: purified IRAP, Leu-AMC cleavage fluorescence, 1 h; at 11 µM (top of the series)

Compound | activity change, negative = inhibition
COC(=O)[C@H]1[C@H](CO)[C@H]2Cn3c(ccc(-c4ccncc4)c3=O)[C@H]2N1Cc1ccccc1F | inactive
COc1ccc(NC(=O)Nc2cccc3c2O[C@H](CN(C)Cc2ccc(C(=O)O)cc2)[C@H](C)CN([C@H](C)CO)C3=O)cc1 | inactive
Cc1noc(C)c1NC(=O)N(C)C[C@@H]1Oc2c(NC(=O)Nc3ccccc3)cccc2C(=O)N([C@H](C)CO)C[C@@H]1C | inactive
COc1ccc(CN(C)C[C@@H]2OCCCC[C@H](C)Oc3ccc(NS(=O)(=O)c4cccs4)cc3C(=O)N([C@H](C)CO)C[C@@H]2C)cc1 | inactive
C[C@@H]1CCCCO[C@@H](CN(C)C)[C@@H](C)CN([C@@H](C)CO)C(=O)c2cc(NS(=O)(=O)c3ccc(F)cc3)ccc2O1 | inactive
C[C@@H]1CCCCO[C@@H](CN(C)CC2CCCCC2)[C@H](C)CN([C@@H](C)CO)C(=O)c2cc(NC(=O)Nc3ccccc3)ccc2O1 | inactive
CCCNC(=O)C[C@H]1CC[C@@H]2[C@H](COC[C@H](O)CN2C(=O)Nc2cccc(Cl)c2)O1 | inactive
COc1ccc(S(=O)(=O)Nc2ccc3c(c2)C(=O)N([C@@H](C)CO)C[C@H](C)[C@H](CN(C)C)OCCCC[C@@H](C)O3)cc1 | inactive
C[C@@H]1CCCCO[C@@H](CN(C)CC2CC2)[C@@H](C)CN([C@H](C)CO)C(=O)c2cc(NS(=O)(=O)c3cccs3)ccc2O1 | inactive
Cc1cc(=O)oc2c(CN3CCN(C)CC3)c(O)c(Cl)cc12 | inactive
C[C@H](CO)N1C[C@H](C)[C@H](CN(C)CC2CCCCC2)Oc2c(NC(=O)Nc3ccc(C(F)(F)F)cc3)cccc2C1=O | inactive
C[C@H](CO)N1C[C@H](C)[C@H](CN(C)Cc2ccncc2)Oc2c(NC(=O)Nc3ccc(C(F)(F)F)cc3)cccc2C1=O | inactive
C[C@H](CO)N1C[C@H](C)[C@H](CN(C)CC2CCCCC2)Oc2c(NC(=O)Nc3ccc4c(c3)OCO4)cccc2C1=O | inactive
C[C@@H]1CCCCO[C@H](CN(C)Cc2ccc(C(=O)O)cc2)[C@H](C)CN([C@@H](C)CO)C(=O)c2cc(NC(=O)Nc3ccc(C(F)(F)F)cc3)ccc2O1 | inactive
COc1ccc(C(=O)O)cc1S(=O)(=O)Nc1cc(C(F)(F)F)ccc1N1CCCCC1 | inactive
COc1ccc(NC(=O)Nc2ccc3c(c2)C(=O)N([C@@H](C)CO)C[C@@H](C)[C@H](CN(C)Cc2ccc(C(=O)O)cc2)OCCCC[C@H](C)O3)cc1 | inactive
Cc1noc(C)c1NC(=O)Nc1ccc2c(c1)C(=O)N([C@H](C)CO)C[C@@H](C)[C@@H](CN(C)Cc1ccc(C(F)(F)F)cc1)OCCCC[C@@H](C)O2 | inactive
CCn1cc(CN2CCCC(C(=O)Nc3ccc(-c4nc5ccccc5[nH]4)cc3)C2)c(C)n1 (stereo not given) | inactive
O=C(C[C@@H]1CC[C@@H]2[C@H](COC[C@H](O)CN2C(=O)Nc2cccc(Cl)c2)O1)N1CCCCC1 | inactive
CNC[C@H]1OCCCC[C@@H](C)Oc2ccc(NS(=O)(=O)c3ccc(C)cc3)cc2C(=O)N([C@@H](C)CO)C[C@H]1C | inactive
Cc1ccccc1-c1ccc2c(c1)O[C@@H](CN(C)Cc1ccc(C(=O)O)cc1)[C@@H](C)CN([C@@H](C)CO)S2(=O)=O | inactive
COc1ccc(CN(C)C[C@H]2OCCCC[C@@H](C)Oc3ccc(NS(=O)(=O)c4cccs4)cc3C(=O)N([C@H](C)CO)C[C@H]2C)cc1 | inactive
CC(=O)N1CCN(C(=O)C2(NC(=O)Nc3ccc(C)cc3)CCCCC2)CC1 | inactive

Compound | activity change, negative = inhibition
C[C@@H]1CN([C@H](C)CO)C(=O)c2cc(NC(=O)Nc3ccc(F)cc3)ccc2O[C@H]1CN(C)Cc1ccc(C(=O)O)cc1 | inactive
C[C@H]1CN([C@@H](C)CO)C(=O)c2cccc(NC(=O)Nc3ccc(C(F)(F)F)cc3)c2O[C@@H]1CN(C)C | inactive
COc1ccc(NC(=O)Nc2ccc3c(c2)C(=O)N([C@H](C)CO)C[C@@H](C)[C@@H](CN(C)Cc2ccc(C(=O)O)cc2)OCCCC[C@@H](C)O3)cc1 | inactive
C[C@@H]1CN([C@H](C)CO)C(=O)c2cccc(NC(=O)Nc3ccccc3)c2O[C@@H]1CN(C)Cc1ccc(C(=O)O)cc1 | inactive
C[C@@H]1CCCCO[C@@H](CN(C)CC2CC2)[C@@H](C)CN([C@H](C)CO)C(=O)c2cc(NS(=O)(=O)c3ccc(Cl)cc3)ccc2O1 | inactive
CCCN(C)C[C@@H]1OCCCC[C@@H](C)Oc2ccc(NS(=O)(=O)c3cccs3)cc2C(=O)N([C@H](C)CO)C[C@@H]1C | inactive
O=C(O)c1cccc(NC(=O)c2ccccc2NC(=O)c2cccc([N+](=O)[O-])c2)c1 | inactive
Cc1noc(C)c1NC(=O)N(C)C[C@@H]1Oc2c(NC(=O)Nc3ccc(F)cc3)cccc2C(=O)N([C@H](C)CO)C[C@@H]1C | inactive
C[C@@H]1CCCCO[C@@H](CN(C)Cc2ccc(C(=O)O)cc2)[C@@H](C)CN([C@H](C)CO)C(=O)c2cc(NC(=O)Nc3cccc4ccccc34)ccc2O1 | inactive
COc1cccc(S(=O)(=O)N(C)C[C@@H]2Oc3ncccc3C(=O)N([C@H](C)CO)C[C@@H]2C)c1 | inactive
O=C(C[C@H]1CC[C@@H]2[C@H](COC[C@@H](O)CN2C(=O)Nc2cccc(Cl)c2)O1)N1CCCCC1 | inactive
COc1ccc(CN(C)C[C@@H]2OCCCC[C@H](C)Oc3ccc(NS(=O)(=O)c4cccs4)cc3C(=O)N([C@@H](C)CO)C[C@@H]2C)cc1 | inactive
Cc1ccc2nc3c(cc(C(=O)NCc4ccccc4)c(=N)n3CCCn3ccnc3)c(=O)n2c1 | inactive
COc1ccc(CN(C)C[C@H]2OCCCC[C@@H](C)Oc3ccc(NS(=O)(=O)c4cccs4)cc3C(=O)N([C@@H](C)CO)C[C@H]2C)cc1 | inactive
C[C@@H]1CCCCO[C@H](CN(C)Cc2ccc(C(=O)O)cc2)[C@@H](C)CN([C@H](C)CO)C(=O)c2cc(NC(=O)Nc3ccc(C(F)(F)F)cc3)ccc2O1 | inactive
C[C@@H]1CCCCO[C@@H](CN(C)C)[C@@H](C)CN([C@@H](C)CO)C(=O)c2cc(NS(=O)(=O)c3ccc(Cl)cc3)ccc2O1 | inactive
N#Cc1c(N2CCNCC2)nc(-c2ccco2)c2c1CCCC2 | inactive
CCCNC(=O)C[C@@H]1CC[C@@H]2[C@H](COC[C@H](O)CN2C(=O)Nc2cccc(Cl)c2)O1 | inactive
COc1ccc(CN(C)C[C@@H]2OCCCC[C@@H](C)Oc3ccc(NS(=O)(=O)c4cccs4)cc3C(=O)N([C@H](C)CO)C[C@H]2C)cc1 | inactive
CCCN(C)C[C@@H]1OCCCC[C@@H](C)Oc2ccc(NS(=O)(=O)c3ccccc3)cc2C(=O)N([C@H](C)CO)C[C@@H]1C | inactive
NC(=NCCc1c[nH]c2ccccc12)NS(=O)(=O)c1cc(F)ccc1F | inactive
O=C(C[C@H]1CC[C@H]2[C@@H](COC[C@@H](O)CN2C(=O)Nc2cccc(Cl)c2)O1)N1CCCCC1 | inactive
